Measurements reported in patent US20070225292A1, “Therapeutic Compounds: Pyridine as Scaffold” (priority 2004, published 2007).

Assays:
Human CB1 receptor [1] = biological target: T1, Human CB1 receptor (Homo sapiens, UniProt P21554); experiment: hCB1 GTPγS binding; type: biochemical; settings: human CB1 membranes, GTPg35S binding; for Emax: maximal stimulated binding with 10 μM Win 55,212-2; for EC50: read-out: EC5O (hCB1)
T1 construct: purchased Receptor Biology
Description: Human CB1 receptor from Receptor Biology (hCB1) or human CB2 receptor membranes (BioSignal) are thawed at 37° C., passed 3 times through a 25-gauge blunt-end needle and diluted in the GTPγS binding buffer (50 mM Hepes, 20 mM NaOH, 100 mM NaCl, 1 mM EDTA, 5 mM MgCl2, pH 7.4, 0.1% BSA). The EC50 and Emax of the compounds of the invention are evaluated from 10-point dose-response curves done in 300 μl with the appropriate amount of membrane protein and 100000-130000 dpm of GTPg^35S per well (0.11-0.14 nM). The basal and maximal stimulated binding is determined in absence and presence of 1 μM (hCB2) or 10 μM (hCB1) Win 55,212-2 respectively. The membranes are pre-incubated for 5 minutes with 56.25 μM (hCB2) or […] (hCB1) GDP prior to distribution in plates (15 μM (hCB2) or 30 μM (hCB1) GDP final). The plates are vortexed and incubated for 60 minutes at room temperature, filtered on Unifilters GF/B (presoaked in water) with the Tomtec or Packard harvester using 3 ml of wash buffer (50 mM Tris, 5 mM MgCl2, 50 mM NaCl, pH 7.0). The filters are dried for 1 hour at 55° C. The radioactivity (cpm) is counted in a TopCount (Packard) after adding 65 μl/well of MS-20 scintillation liquid. Antagonist reversal studies are done in the same way except that (a) an agonist dose-response curve is done in the presence of a constant concentration of antagonist, or (b) an antagonist dose-response curve is done in the presence of a constant concentration of agonist.

Human CB1 receptor [2] = biological target: T1, Human CB1 receptor; experiment: hCB1 receptor binding (3H-CP55,940 displacement); settings: human CB1 membranes, Ki=IC50/(1+[rad]/Kd)
Description: Human CB1 receptor from Receptor Biology (hCB1) or human CB2 receptor from BioSignal (hCB2) membranes are thawed at 37° C., passed 3 times through a 25-gauge blunt-end needle, diluted in the cannabinoid binding buffer (50 mM Tris, 2.5 mM EDTA, 5 mM MgCl2, and 0.5 mg/mL BSA fatty acid free, pH 7.4) and aliquots containing the appropriate amount of protein are distributed in 96-well plates. The IC50 of the compounds of the invention at hCB1 and hCB2 are evaluated from 10-point dose-response curves done with ^3H-CP55,940 at 20000 to 25000 dpm per well (0.17-0.21 nM) in a final volume of 300 μl. The total and non-specific binding are determined in the absence and presence of 0.2 μM of HU210 respectively. The plates are vortexed and incubated for 60 minutes at room temperature, filtered through Unifilters GF/B (presoaked in 0.1% polyethyleneimine) with the Tomtec or Packard harvester using 3 mL of wash buffer (50 mM Tris, 5 mM MgCl2, 0.5 mg BSA pH 7.0). The filters are dried for 1 hour at 55° C. The radioactivity (cpm) is counted in a TopCount (Packard) after adding 65 μl/well of MS-20 scintillation liquid.
Based on the above assays, the dissociation constant (Ki) for a particular compound of the invention towards a particular receptor is determined using the following equation: Ki=IC50/(1+[rad]/Kd),
Wherein IC50 is the concentration of the compound of the invention at which 50% displacement has been observed;
[rad] is a standard or reference radioactive ligand concentration at that moment; and
Kd is the dissociation constant of the radioactive ligand towards the particular receptor.

T1 sequence (P21554 whole entry): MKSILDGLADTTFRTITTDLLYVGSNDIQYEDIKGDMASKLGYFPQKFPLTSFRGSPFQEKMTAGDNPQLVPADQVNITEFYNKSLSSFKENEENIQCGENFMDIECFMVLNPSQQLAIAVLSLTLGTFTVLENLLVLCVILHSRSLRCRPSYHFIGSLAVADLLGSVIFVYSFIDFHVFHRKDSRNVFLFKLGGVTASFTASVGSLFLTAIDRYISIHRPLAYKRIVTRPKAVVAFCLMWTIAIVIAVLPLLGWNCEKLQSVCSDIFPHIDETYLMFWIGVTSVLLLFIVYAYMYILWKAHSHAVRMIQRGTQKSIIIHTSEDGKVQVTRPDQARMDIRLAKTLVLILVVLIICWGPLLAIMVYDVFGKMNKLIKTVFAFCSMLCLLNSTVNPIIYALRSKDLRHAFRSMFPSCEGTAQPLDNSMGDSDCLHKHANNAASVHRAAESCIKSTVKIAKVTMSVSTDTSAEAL

Structure (SMILES)	Emax (Human CB1 receptor [1]) [%]	EC50 (Human CB1 receptor [1]) [nM]	Ki (Human CB1 receptor [2]) [nM]
O=C(NCC1CCCC1)c1ncccc1NC(=O)c1cccc2ccccc12 [Example 13, N-(Cyclopentylmethyl)-3-[(1-naphthalenylcarbonyl)amino]-2-pyridinecarboxamide]	105	46	12
O=C(NCC1CCOCC1)c1nccnc1NC(=O)c1cccc2ccccc12 [Example 43, 3-(1-Naphthoylamino)-N-(tetrahydro-2H-pyran-4-ylmethyl)pyrazine-2-carboxamide]	112	907	181
Cc1ccc(C(=O)Nc2cccnc2C(=O)NCc2ccccn2)c2ccccc12 [Example 80, 3-(4-Methyl 1-naphthoylamino)-N-(pyridin-2-ylmethyl)pyridine-2-carboxamide]	75	1230	221
O=C(NCC1CCCCC1)c1ncccc1NC(=O)c1ccc(N2CCC2)c2ccccc12 [Example 171, 3-[(4-Azetidin-1-yl-1-naphthoyl)amino]-N-(cyclohexylmethyl)pyridine-2-carboxamide]	71	217	57
